Patent US20150150878A1, “Methods For Inhibiting Viruses By Targeting Cathepsin-L Cleavage Sites In The Viruses' Glycoproteins” (priority 2012, published 2015)

Tests used:
[1] = molecular target: T1, cathepsin L (Homo sapiens, UniProt P07711); format: biochemical; design: human cathepsin L purified from human liver (Sigma Aldrich); purchased Sigma Aldrich; host or cells: human liver (tissue-purified)
[2] = molecular target: T1, cathepsin L; format: biochemical; design: human cathepsin L purified from human liver (Sigma Aldrich); purchased Sigma Aldrich; host or cells: human liver (tissue-purified); remark: listed apart in the source
[3] = molecular target: T1, cathepsin L; format: biochemical; design: human cathepsin L purified from human liver (Sigma Aldrich); purchased Sigma Aldrich; host or cells: human liver (tissue-purified); remark: listed apart in the source
[4] = molecular target: T1, cathepsin L; format: biochemical; design: human cathepsin L purified from human liver (Sigma Aldrich); purchased Sigma Aldrich; host or cells: human liver (tissue-purified); remark: listed apart in the source
[5] = molecular target: T1, cathepsin L; format: biochemical; design: human cathepsin L purified from human liver (Sigma Aldrich); purchased Sigma Aldrich; host or cells: human liver (tissue-purified); remark: listed apart in the source
[6] = test system: 293FT cells
[7] = test system: EBOV-GP pseudotyped virus; assay: microbe, parasite or virus in culture; format: cell-based, Ebola virus; conditions: Zaire ebolavirus, 72 h, read-out: inhibition of EBOV pseudotyped virus entry
[8] = test system: SARS-CoV-S pseudotyped virus; assay: microbe, parasite or virus in culture; format: cell-based; conditions: Severe acute respiratory syndrome coronavirus, 72 h, read-out: inhibition of SARS-CoV pseudotyped virus entry
Throughout, for Inhibition of cleavage of Hendra peptide by Cathepsin-L: test concentration or dose not given here.
Throughout, for Inhibition of cleavage of NPY peptide by Cathepsin-L: test concentration or dose not given here.
Throughout, for Inhibition of cleavage of Nipah peptide by Cathepsin-L: test concentration or dose not given here.
Throughout, for Inhibition of cleavage of SARS peptide by Cathepsin-L: test concentration or dose not given here.
Throughout, for percentage inhibition against Ebola peptide: test concentration or dose not given here.
Throughout, for percentage inhibition against Hendra peptide: test concentration or dose not given here.
Throughout, for percentage inhibition against Nipah peptide: test concentration or dose not given here.
Throughout, for percentage inhibition against SARS peptide: test concentration or dose not given here.
Throughout, for percentage inhibition against human Pro-NPY peptide: test concentration or dose not given here.

T1 sequence (P07711 114-333): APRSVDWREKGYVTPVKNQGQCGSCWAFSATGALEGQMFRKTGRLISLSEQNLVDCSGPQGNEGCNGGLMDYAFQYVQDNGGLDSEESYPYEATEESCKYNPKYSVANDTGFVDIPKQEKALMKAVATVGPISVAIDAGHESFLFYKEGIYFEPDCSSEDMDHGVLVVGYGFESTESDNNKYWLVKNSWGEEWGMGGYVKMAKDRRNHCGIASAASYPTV

CNS(=O)(=O)c1ccc(NC(=O)Nc2ccc(F)c(Cl)c2)cc1 [Compound 7790059]
Inhibition of cleavage of Nipah peptide by Cathepsin-L [1]: 44.1%
Inhibition of cleavage of Hendra peptide by Cathepsin-L [2]: 12.4%
Inhibition of cleavage of SARS peptide by Cathepsin-L [3]: 49.3%
Inhibition of cleavage of NPY peptide by Cathepsin-L [4]: 6.4%
Inhibition of cleavage of Ebola peptide by Cathepsin-L [5]: 1.8%

Cl.c1ccc(CNC2CCCc3c2[nH]c2ccc(-c4ccccc4)cc32)cc1 (centres unmarked) [Compound 5219666]
Inhibition of cleavage of Nipah peptide by Cathepsin-L [1]: 90.6%
percentage inhibition against Nipah peptide [1]: 87.5%
Inhibition of cleavage of Hendra peptide by Cathepsin-L [2]: 54.6%
percentage inhibition against Hendra peptide [2]: 65.2%
Inhibition of cleavage of SARS peptide by Cathepsin-L [3]: 94.6%
percentage inhibition against SARS peptide [3]: 96.8%
Inhibition of cleavage of NPY peptide by Cathepsin-L [4]: 30%
percentage inhibition against human Pro-NPY peptide [4]: 44.4%
Inhibition of cleavage of Ebola peptide by Cathepsin-L [5]: 43%
percentage inhibition against Ebola peptide [5]: 75.7%

O=C(Nc1nc(-c2ccccc2)cs1)c1cc(-n2cnnc2)ccc1Cl [Compound 7931205]
Inhibition of cleavage of Nipah peptide by Cathepsin-L [1]: 66.6%
percentage inhibition against Nipah peptide [1]: 74.4%
Inhibition of cleavage of Hendra peptide by Cathepsin-L [2]: 34.8%
percentage inhibition against Hendra peptide [2]: 38.6%
Inhibition of cleavage of SARS peptide by Cathepsin-L [3]: 36.8%
percentage inhibition against SARS peptide [3]: 38.1%
Inhibition of cleavage of NPY peptide by Cathepsin-L [4]: 19.5%
percentage inhibition against human Pro-NPY peptide [4]: 24.9%
Inhibition of cleavage of Ebola peptide by Cathepsin-L [5]: −0.7%
percentage inhibition against Ebola peptide [5]: 20%

Cc1cc(C(=O)Nc2cccnc2)sc1-c1ccccc1 [Compound 7948346]
Inhibition of cleavage of Nipah peptide by Cathepsin-L [1]: 49.3%
Inhibition of cleavage of Hendra peptide by Cathepsin-L [2]: 17.7%
Inhibition of cleavage of SARS peptide by Cathepsin-L [3]: 72.4%
Inhibition of cleavage of NPY peptide by Cathepsin-L [4]: 10.2%
Inhibition of cleavage of Ebola peptide by Cathepsin-L [5]: 25.2%

O=c1[nH]c2ccc(S(=O)(=O)Nc3ccc(Cl)c(Cl)c3)cc2o1 [Compound 7914021, N-(3,4-dichlorophenyl)-2-oxo-2,3-dihydrobenzo[d]oxazole-6-sulfonamide]
Inhibition of cleavage of Nipah peptide by Cathepsin-L [1]: 53.6%
percentage inhibition against Nipah peptide [1]: 82%
cytotoxic effect on 293FT cells [6]: toxic
cytotoxicity ([6]; human): 20-100%
Inhibition of cleavage of Hendra peptide by Cathepsin-L [2]: 25.4%
percentage inhibition against Hendra peptide [2]: 52.2%
Inhibition of cleavage of SARS peptide by Cathepsin-L [3]: 71.7%
percentage inhibition against SARS peptide [3]: 85.2%
Inhibition of cleavage of NPY peptide by Cathepsin-L [4]: 13.1%
percentage inhibition against human Pro-NPY peptide [4]: 21.9%
Inhibition of cleavage of Ebola peptide by Cathepsin-L [5]: 36%
percentage inhibition against Ebola peptide [5]: 83.8%
inhibition at 10 µM [7]: 51.5%
inhibition at 10 µM [8]: 27.1%

N#Cc1ccc(NC(=O)Nc2ccc(Cl)cc2)cc1 [Compound 7910528, 1-(4-chlorophenyl)-3-(4-cyanophenyl)urea]
Inhibition of cleavage of Nipah peptide by Cathepsin-L [1]: 57.8%
percentage inhibition against Nipah peptide [1]: 57.8%
Inhibition of cleavage of Hendra peptide by Cathepsin-L [2]: 12.1%
percentage inhibition against Hendra peptide [2]: 12.1%
Inhibition of cleavage of SARS peptide by Cathepsin-L [3]: 56.5%
percentage inhibition against SARS peptide [3]: 56.5%
Inhibition of cleavage of NPY peptide by Cathepsin-L [4]: 6.5%
percentage inhibition against human Pro-NPY peptide [4]: 6.5%
Inhibition of cleavage of Ebola peptide by Cathepsin-L [5]: 33.4%
percentage inhibition against Ebola peptide [5]: 35%
inhibition at 10 µM [7]: 23.3%
inhibition at 10 µM [8]: 30.3%

Cc1ccc(-c2nc3ccccc3[nH]2)cc1NC(=O)c1ccc2c(c1)OCO2 [Compound 7793889]
Inhibition of cleavage of Nipah peptide by Cathepsin-L [1]: 51.1%
Inhibition of cleavage of Hendra peptide by Cathepsin-L [2]: −7.77%
Inhibition of cleavage of SARS peptide by Cathepsin-L [3]: 76.5%
Inhibition of cleavage of NPY peptide by Cathepsin-L [4]: 6.1%
Inhibition of cleavage of Ebola peptide by Cathepsin-L [5]: −3.4%

Cc1c(C#N)c2ccccc2n1CC(=O)NCc1ccc2c(c1)OCO2 [Compound 6874634]
Inhibition of cleavage of Nipah peptide by Cathepsin-L [1]: 46%
percentage inhibition against Nipah peptide [1]: 54.1%
Inhibition of cleavage of Hendra peptide by Cathepsin-L [2]: 21.2%
percentage inhibition against Hendra peptide [2]: 22.7%
Inhibition of cleavage of SARS peptide by Cathepsin-L [3]: 65.6%
percentage inhibition against SARS peptide [3]: 67.7%
Inhibition of cleavage of NPY peptide by Cathepsin-L [4]: 12.8%
percentage inhibition against human Pro-NPY peptide [4]: 13.4%
Inhibition of cleavage of Ebola peptide by Cathepsin-L [5]: 4.6%
percentage inhibition against Ebola peptide [5]: 48%

O=C(Nc1ccc(F)c(Cl)c1)Nc1nnc(C(F)(F)F)s1 [Compound 7940158]
Inhibition of cleavage of Nipah peptide by Cathepsin-L [1]: 34%
percentage inhibition against Nipah peptide [1]: 54.7%
Inhibition of cleavage of Hendra peptide by Cathepsin-L [2]: 26.2%
percentage inhibition against Hendra peptide [2]: 19%
Inhibition of cleavage of SARS peptide by Cathepsin-L [3]: 55.8%
percentage inhibition against SARS peptide [3]: 64.6%
Inhibition of cleavage of NPY peptide by Cathepsin-L [4]: 4%
percentage inhibition against human Pro-NPY peptide [4]: 14.9%
Inhibition of cleavage of Ebola peptide by Cathepsin-L [5]: −12.3%
percentage inhibition against Ebola peptide [5]: 49.1%

O=C(Nc1ccc2c(c1)OCO2)c1cc(-c2cccnc2)nc2ccc(Cl)cc12 [Compound 7924029]
Inhibition of cleavage of Nipah peptide by Cathepsin-L [1]: 50.4%
percentage inhibition against Nipah peptide [1]: 77.9%
Inhibition of cleavage of Hendra peptide by Cathepsin-L [2]: 26.3%
percentage inhibition against Hendra peptide [2]: 45.6%
Inhibition of cleavage of SARS peptide by Cathepsin-L [3]: 60%
percentage inhibition against SARS peptide [3]: 71.2%
Inhibition of cleavage of NPY peptide by Cathepsin-L [4]: 11%
percentage inhibition against human Pro-NPY peptide [4]: 18.6%
Inhibition of cleavage of Ebola peptide by Cathepsin-L [5]: 22%
percentage inhibition against Ebola peptide [5]: 55%

Nc1ccc2[nH]c3ccccc3c2c1 [Compound 5172420]
Inhibition of cleavage of Nipah peptide by Cathepsin-L [1]: 55.68%
Inhibition of cleavage of Hendra peptide by Cathepsin-L [2]: 8.20%
Inhibition of cleavage of SARS peptide by Cathepsin-L [3]: 42.29%
Inhibition of cleavage of NPY peptide by Cathepsin-L [4]: 4.1%
Inhibition of cleavage of Ebola peptide by Cathepsin-L [5]: 6.1%

COc1ccc(OC)c(NC(=O)Nc2ccc(C(F)(F)F)cc2)c1 [Compound 7808526]
Inhibition of cleavage of Nipah peptide by Cathepsin-L [1]: 40.8%
Inhibition of cleavage of Hendra peptide by Cathepsin-L [2]: −4.08%
Inhibition of cleavage of SARS peptide by Cathepsin-L [3]: 69.2%
Inhibition of cleavage of NPY peptide by Cathepsin-L [4]: 1.2%
Inhibition of cleavage of Ebola peptide by Cathepsin-L [5]: 9.6%

Cc1cnn(CCCNC(=O)c2cc(-c3cccnc3)nc3ccc(Cl)cc23)c1 [Compound 7923236]
Inhibition of cleavage of Nipah peptide by Cathepsin-L [1]: 55.1%
percentage inhibition against Nipah peptide [1]: 80.3%
Inhibition of cleavage of Hendra peptide by Cathepsin-L [2]: 32.6%
percentage inhibition against Hendra peptide [2]: 59%
Inhibition of cleavage of SARS peptide by Cathepsin-L [3]: 60.2%
percentage inhibition against SARS peptide [3]: 66.2%
Inhibition of cleavage of NPY peptide by Cathepsin-L [4]: 5.2%
percentage inhibition against human Pro-NPY peptide [4]: 10.1%
Inhibition of cleavage of Ebola peptide by Cathepsin-L [5]: 14%
percentage inhibition against Ebola peptide [5]: 34.8%

O=C(Nc1cccnc1)c1cc2cc(Br)ccc2oc1=O [Compound 7947992]
Inhibition of cleavage of Nipah peptide by Cathepsin-L [1]: 61.4%
Inhibition of cleavage of Hendra peptide by Cathepsin-L [2]: 31.1%
Inhibition of cleavage of SARS peptide by Cathepsin-L [3]: 37.7%
Inhibition of cleavage of NPY peptide by Cathepsin-L [4]: 18.6%
Inhibition of cleavage of Ebola peptide by Cathepsin-L [5]: 20%

N#CSc1ccc(NC(=O)CSc2nc3ccccc3[nH]2)cc1 [Compound 6572698]
Inhibition of cleavage of Nipah peptide by Cathepsin-L [1]: 40.7%
percentage inhibition against Nipah peptide [1]: 41.1%
Inhibition of cleavage of Hendra peptide by Cathepsin-L [2]: 21.6%
percentage inhibition against Hendra peptide [2]: 24.8%
Inhibition of cleavage of SARS peptide by Cathepsin-L [3]: 66.1%
percentage inhibition against SARS peptide [3]: 44.8%
Inhibition of cleavage of NPY peptide by Cathepsin-L [4]: 1%
percentage inhibition against human Pro-NPY peptide [4]: 14.7%
Inhibition of cleavage of Ebola peptide by Cathepsin-L [5]: 15%
percentage inhibition against Ebola peptide [5]: 34%

Cc1c(Sc2nc3ccccc3[nH]2)c(=O)[nH]c2cc3c(cc12)OCO3 [Compound 7665576]
Inhibition of cleavage of Nipah peptide by Cathepsin-L [1]: 63.7%
Inhibition of cleavage of Hendra peptide by Cathepsin-L [2]: 37.9%
Inhibition of cleavage of SARS peptide by Cathepsin-L [3]: 60.7%
Inhibition of cleavage of NPY peptide by Cathepsin-L [4]: 2.0%
Inhibition of cleavage of Ebola peptide by Cathepsin-L [5]: −3.8%

CN(C)c1ccc(C(O)(c2ccc(N(C)C)cc2)c2ccc(N(C)C)cc2)cc1 [Compound 5152606]
Inhibition of cleavage of Nipah peptide by Cathepsin-L [1]: 121.65%
Inhibition of cleavage of Hendra peptide by Cathepsin-L [2]: 108.40%
Inhibition of cleavage of SARS peptide by Cathepsin-L [3]: 82.15%
Inhibition of cleavage of NPY peptide by Cathepsin-L [4]: 70.2%
Inhibition of cleavage of Ebola peptide by Cathepsin-L [5]: 31.8%

O=C(Nc1ccc(S(=O)(=O)N2CCOCC2)cc1)Nc1ccc(F)c(Cl)c1 [Compound 7798500]
Inhibition of cleavage of Nipah peptide by Cathepsin-L [1]: 41.5%
percentage inhibition against Nipah peptide [1]: 49.2%
Inhibition of cleavage of Hendra peptide by Cathepsin-L [2]: 26.3%
percentage inhibition against Hendra peptide [2]: 30.4%
Inhibition of cleavage of SARS peptide by Cathepsin-L [3]: 69.6%
percentage inhibition against SARS peptide [3]: 62.2%
Inhibition of cleavage of NPY peptide by Cathepsin-L [4]: 11.2%
percentage inhibition against human Pro-NPY peptide [4]: 24.6%
Inhibition of cleavage of Ebola peptide by Cathepsin-L [5]: −6.3%
percentage inhibition against Ebola peptide [5]: 64.8%
